In experiment [1] the target is Tyrosine-protein kinase Fgr (Homo sapiens, UniProt P09769). The experiment can be described thus: Binding affinity to FGR (unknown origin) assessed as dissociation constant.
The target of experiment [2] is T1, Proto-oncogene tyrosine-protein kinase Src (Homo sapiens, UniProt P12931). The experiment in a line: Binding affinity to c-Src (unknown origin) assessed as inhibition constant.
Target sequence in this assay (P12931 whole entry, looked up): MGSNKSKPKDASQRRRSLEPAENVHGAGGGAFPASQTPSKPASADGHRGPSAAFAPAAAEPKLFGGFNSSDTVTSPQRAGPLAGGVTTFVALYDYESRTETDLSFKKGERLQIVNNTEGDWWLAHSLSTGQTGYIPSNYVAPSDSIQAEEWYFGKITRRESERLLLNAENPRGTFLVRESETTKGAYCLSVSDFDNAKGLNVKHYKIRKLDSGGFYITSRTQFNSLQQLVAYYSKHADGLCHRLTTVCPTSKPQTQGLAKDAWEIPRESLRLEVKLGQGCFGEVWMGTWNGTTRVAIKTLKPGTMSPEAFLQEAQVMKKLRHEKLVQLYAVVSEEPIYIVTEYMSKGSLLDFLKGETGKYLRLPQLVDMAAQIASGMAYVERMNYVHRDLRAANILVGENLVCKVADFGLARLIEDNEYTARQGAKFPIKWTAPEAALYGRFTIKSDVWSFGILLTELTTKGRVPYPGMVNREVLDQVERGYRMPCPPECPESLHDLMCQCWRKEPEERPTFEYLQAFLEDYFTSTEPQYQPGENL
For experiment [3], the target named is T2, Tyrosine-protein kinase Lck (Homo sapiens, UniProt P06239). The experiment in a line: Binding affinity to LCK (unknown origin) assessed as dissociation constant.
The target of experiment [4] is Tyrosine-protein kinase Yes (Homo sapiens, UniProt P07947). The experiment can be described thus: Binding affinity to YES (unknown origin) assessed as dissociation constant.
Experiment [5] has as its target Phosphatidylinositol 4,5-bisphosphate 3-kinase catalytic subunit beta isoform (Homo sapiens, UniProt P42338). The experiment can be described thus: Binding affinity to PI3Kbeta (unknown origin) assessed as dissociation constant.
The target in experiment [6] is Phosphatidylinositol 4,5-bisphosphate 3-kinase catalytic subunit gamma isoform (Homo sapiens, UniProt P48736). The experiment can be described thus: Binding affinity to PI3Kgamma (unknown origin) assessed as dissociation constant.
The target of experiment [7] is Phosphatidylinositol 4,5-bisphosphate 3-kinase catalytic subunit alpha isoform (Homo sapiens, UniProt P42336). The experiment in a line: Binding affinity to PI3Kalpha (unknown origin) assessed as dissociation constant.
For experiment [8], the system named is HBL. The experiment in a line: Antiproliferative activity against human HBL cells assessed as inhibition of cell growth. The format is functional.
For experiment [9], the target named is Tyrosine-protein kinase Lyn (Homo sapiens, UniProt P07948). The experiment in a line: Inhibition of LYN (unknown origin).
Experiment [10] addresses T1, Proto-oncogene tyrosine-protein kinase Src. The experiment can be described thus: Inhibition of Src kinase (unknown origin) phosphorylation at Tyr416/419 residues incubated for 24 hrs by Western blot analysis. On the technique in general: A western blot detects proteins with antibodies after separation by electrophoresis.
Experiment [11] deals with T2, Tyrosine-protein kinase Lck. The experiment in a line: Inhibition of His-tagged LCK (62 to 509 residues) (unknown origin) expressed in Sf9 insect cells at 10 uM using poly (Glu, Tyr) 4:1 as substrate incubated for 1 hr by spectrometric analysis.
The target of experiment [12] is Epidermal growth factor receptor (Homo sapiens, UniProt P00533). The experiment in a line: Inhibition of human recombinant His-tagged EGFR expressed in baculovirus using poly-Gluo-Tyr as a substrate measured after 24 hrs by western blot analysis.
Experiment [13] concerns MDA-MB-231. The experiment in a line: Antitumor activity against human MDA-MB-231 cells xenografted in athymic nude mouse assessed as the inhibition of tumor growth at 25 mg/kg, ip administered twice daily for 14 days relative to control. In kind it is functional. The conditions noted are these: MDA-MB-231, 336 h, time 14 day, read-out: TGI.
For experiment [14], the system named is MDA-MB-231. The experiment in a line: Antitumor activity against human MDA-MB-231 cells xenografted in athymic nude mouse assessed as the inhibition of tumor growth at 65 mg/kg, ip measured at 24 hrs post-dose relative to control. The conditions noted are these: MDA-MB-231, 24 h, read-out: TGI. A general note: In xenograft studies the graft and the host belong to different species.

Each structure is given as a SMILES string. Where “and” joins values, the source holds several entries; their conditions need not be identical. Equal values may be shown once.

T2 sequence (P06239 whole entry): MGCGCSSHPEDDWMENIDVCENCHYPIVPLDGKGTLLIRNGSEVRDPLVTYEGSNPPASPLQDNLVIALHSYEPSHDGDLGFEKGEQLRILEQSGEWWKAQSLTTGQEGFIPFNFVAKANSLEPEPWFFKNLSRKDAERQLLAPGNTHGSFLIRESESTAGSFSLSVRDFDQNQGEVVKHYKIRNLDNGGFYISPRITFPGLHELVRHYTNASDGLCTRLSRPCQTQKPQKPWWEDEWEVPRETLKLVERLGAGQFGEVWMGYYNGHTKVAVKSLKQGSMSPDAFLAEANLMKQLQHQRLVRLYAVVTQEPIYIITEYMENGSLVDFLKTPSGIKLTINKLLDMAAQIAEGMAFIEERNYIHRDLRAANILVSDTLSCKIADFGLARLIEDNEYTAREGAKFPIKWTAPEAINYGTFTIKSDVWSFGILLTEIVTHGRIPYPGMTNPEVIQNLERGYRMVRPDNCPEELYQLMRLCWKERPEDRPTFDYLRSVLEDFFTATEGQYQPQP
Chain of Epidermal growth factor receptor (P00533 whole entry): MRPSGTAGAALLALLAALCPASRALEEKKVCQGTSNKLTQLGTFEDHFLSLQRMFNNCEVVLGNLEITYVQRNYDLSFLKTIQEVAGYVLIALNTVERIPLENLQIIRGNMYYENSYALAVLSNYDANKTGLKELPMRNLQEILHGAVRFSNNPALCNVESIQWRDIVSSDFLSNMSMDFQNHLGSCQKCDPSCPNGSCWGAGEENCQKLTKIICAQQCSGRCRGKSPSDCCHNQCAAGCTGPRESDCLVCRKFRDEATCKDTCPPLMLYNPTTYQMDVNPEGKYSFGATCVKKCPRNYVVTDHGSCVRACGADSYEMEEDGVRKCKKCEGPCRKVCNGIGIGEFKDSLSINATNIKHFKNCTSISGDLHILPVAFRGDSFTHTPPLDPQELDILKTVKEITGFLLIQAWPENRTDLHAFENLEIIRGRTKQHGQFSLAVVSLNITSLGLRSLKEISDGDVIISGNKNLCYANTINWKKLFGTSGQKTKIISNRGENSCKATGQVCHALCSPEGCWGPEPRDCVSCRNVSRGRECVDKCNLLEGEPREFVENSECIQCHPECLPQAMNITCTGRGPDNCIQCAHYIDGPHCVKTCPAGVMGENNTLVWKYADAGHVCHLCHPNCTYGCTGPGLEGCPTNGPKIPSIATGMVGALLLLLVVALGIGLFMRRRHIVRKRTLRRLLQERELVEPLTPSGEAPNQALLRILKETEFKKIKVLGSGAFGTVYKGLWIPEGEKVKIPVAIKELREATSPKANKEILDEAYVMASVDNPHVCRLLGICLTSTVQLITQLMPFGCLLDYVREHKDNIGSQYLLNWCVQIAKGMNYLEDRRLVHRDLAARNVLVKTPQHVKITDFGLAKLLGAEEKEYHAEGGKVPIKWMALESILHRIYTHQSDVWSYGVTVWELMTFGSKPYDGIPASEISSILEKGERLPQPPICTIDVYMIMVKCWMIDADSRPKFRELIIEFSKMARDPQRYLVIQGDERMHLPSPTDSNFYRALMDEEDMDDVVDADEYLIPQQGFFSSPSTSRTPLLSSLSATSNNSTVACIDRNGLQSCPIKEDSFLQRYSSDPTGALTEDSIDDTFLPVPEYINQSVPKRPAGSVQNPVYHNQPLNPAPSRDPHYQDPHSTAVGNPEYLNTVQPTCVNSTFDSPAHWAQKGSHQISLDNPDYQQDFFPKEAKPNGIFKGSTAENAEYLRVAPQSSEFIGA
Chain of Tyrosine-protein kinase Lyn (P07948 whole entry): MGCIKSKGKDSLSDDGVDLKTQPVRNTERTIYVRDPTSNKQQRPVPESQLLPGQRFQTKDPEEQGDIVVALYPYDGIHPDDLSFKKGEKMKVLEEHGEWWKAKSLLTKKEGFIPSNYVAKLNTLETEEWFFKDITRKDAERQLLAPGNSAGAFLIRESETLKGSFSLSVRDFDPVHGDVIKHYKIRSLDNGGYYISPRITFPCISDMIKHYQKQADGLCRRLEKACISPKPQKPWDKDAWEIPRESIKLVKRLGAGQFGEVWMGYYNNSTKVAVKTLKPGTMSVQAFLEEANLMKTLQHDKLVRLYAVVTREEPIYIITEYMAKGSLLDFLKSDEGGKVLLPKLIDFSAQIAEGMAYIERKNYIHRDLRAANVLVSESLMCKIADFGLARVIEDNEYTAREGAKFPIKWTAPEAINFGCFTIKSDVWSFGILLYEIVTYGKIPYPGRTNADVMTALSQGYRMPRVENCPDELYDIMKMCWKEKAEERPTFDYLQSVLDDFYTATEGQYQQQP
Chain of Phosphatidylinositol 4,5-bisphosphate 3-kinase catalytic subunit beta isoform (P42338 whole entry, canonical isoform): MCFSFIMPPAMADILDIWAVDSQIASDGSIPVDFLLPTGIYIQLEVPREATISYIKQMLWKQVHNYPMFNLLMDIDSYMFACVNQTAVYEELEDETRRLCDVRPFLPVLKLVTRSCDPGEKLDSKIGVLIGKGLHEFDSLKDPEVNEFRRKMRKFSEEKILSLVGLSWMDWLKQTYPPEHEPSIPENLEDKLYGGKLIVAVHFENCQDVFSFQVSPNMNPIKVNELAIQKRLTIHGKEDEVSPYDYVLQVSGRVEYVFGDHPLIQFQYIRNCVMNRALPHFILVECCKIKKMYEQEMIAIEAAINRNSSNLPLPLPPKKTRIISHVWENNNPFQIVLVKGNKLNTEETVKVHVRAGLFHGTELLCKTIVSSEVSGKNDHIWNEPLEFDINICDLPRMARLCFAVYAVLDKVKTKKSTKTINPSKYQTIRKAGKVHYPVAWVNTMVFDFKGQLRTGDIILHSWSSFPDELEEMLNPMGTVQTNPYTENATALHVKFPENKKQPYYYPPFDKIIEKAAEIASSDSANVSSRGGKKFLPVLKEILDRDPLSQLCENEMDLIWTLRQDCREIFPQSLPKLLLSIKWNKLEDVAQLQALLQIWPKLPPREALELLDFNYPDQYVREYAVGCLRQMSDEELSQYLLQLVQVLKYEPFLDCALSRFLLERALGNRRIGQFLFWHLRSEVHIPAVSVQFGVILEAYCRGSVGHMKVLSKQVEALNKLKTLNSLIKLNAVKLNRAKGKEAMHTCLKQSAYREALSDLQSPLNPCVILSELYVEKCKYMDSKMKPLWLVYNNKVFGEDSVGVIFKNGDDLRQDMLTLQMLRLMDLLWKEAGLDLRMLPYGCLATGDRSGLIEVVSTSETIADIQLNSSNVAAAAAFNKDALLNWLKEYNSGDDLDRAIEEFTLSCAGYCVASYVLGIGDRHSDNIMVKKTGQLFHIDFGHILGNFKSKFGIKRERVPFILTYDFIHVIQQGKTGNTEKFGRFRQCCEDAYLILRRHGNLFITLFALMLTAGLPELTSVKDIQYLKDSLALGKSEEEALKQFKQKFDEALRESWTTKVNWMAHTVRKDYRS
Chain of Tyrosine-protein kinase Yes (P07947 whole entry, canonical isoform): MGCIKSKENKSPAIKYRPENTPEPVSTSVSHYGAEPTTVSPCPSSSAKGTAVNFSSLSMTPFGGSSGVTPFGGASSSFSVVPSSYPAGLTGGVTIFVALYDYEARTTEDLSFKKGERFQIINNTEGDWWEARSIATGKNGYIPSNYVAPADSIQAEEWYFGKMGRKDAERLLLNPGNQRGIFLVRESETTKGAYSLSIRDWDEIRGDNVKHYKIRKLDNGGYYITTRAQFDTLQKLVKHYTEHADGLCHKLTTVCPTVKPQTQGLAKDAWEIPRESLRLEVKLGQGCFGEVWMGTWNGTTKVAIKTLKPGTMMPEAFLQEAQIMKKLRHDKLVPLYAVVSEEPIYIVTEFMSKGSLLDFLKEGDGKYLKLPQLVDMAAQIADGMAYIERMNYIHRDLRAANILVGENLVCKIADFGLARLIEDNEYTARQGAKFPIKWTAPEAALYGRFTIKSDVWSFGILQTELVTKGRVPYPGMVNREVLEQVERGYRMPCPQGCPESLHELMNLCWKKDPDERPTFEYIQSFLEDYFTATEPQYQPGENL
Chain of Tyrosine-protein kinase Fgr (P09769 whole entry): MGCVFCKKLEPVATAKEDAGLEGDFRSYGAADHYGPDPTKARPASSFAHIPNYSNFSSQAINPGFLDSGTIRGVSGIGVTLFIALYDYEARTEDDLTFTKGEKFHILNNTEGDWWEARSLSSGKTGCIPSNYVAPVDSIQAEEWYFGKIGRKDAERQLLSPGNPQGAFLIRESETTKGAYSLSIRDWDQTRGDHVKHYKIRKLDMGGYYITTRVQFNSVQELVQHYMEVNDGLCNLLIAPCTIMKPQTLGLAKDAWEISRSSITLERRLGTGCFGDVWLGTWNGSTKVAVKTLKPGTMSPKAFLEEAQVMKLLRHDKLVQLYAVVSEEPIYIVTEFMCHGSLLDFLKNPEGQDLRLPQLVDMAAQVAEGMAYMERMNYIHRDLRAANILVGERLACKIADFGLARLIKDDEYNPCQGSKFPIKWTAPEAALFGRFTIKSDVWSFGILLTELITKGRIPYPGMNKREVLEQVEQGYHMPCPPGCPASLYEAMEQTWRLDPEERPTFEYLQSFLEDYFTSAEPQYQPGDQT

As for `Nc1ncnc2c1c(-c1ccc(Cl)cc1)nn2-c1cccc(-c2cnnn2Cc2cccc(-c3ccccc3)c2)c1`, the Kd in experiment [1] was 240 nM; in [3] it was 86 nM and 160 nM; in experiment [4], 720 nM. Further, the Ki in experiment [2] came out at 44 nM.
As for `CC(C)Oc1ccc(-c2nn([C@H](C)c3oc4ccc(F)cc4c(=O)c3-c3cccc(F)c3)c3ncnc(N)c23)cc1F`, the Kd in experiment [5] was more than 10000 nM; in [6], more than 1400 nM; in [7] it was more than 10000 nM.
Take `Nc1ncnc2c1c(-c1ccc(Oc3ccccc3)cc1)nn2[C@@H]1CCCN(C(=O)c2cn(CCOCCOCCOCCNc3cccc4c3C(=O)N(C3CCC(=O)NC3=O)C4=O)nn2)C1` (some centres undefined): in experiment [8], the GI50 stood at 28 nM.
Regarding `CN1CCN([C@H]2CC[C@H](n3cc(-c4ccc(Oc5ccccc5)cc4)c4c(N)ncnc43)CC2)CC1`, the IC50 in experiment [9] was less than 3 nM; in [10], 9 nM; in experiment [11], less than 3 nM.
As for `COc1cccc(-c2cn(-c3ccc(CCN4CCC(O)CC4)cc3)c3ncnc(N)c23)c1`, the IC50 in [12] amounted to 150 nM.
`COc1cccc2cc(-c3nc([C@H]4CC[C@H](C(=O)O)CC4)n4ncnc(N)c34)[nH]c12` [OSI-027]: the inhibition in vivo at 25 mg/kg in [13] was 90%. Besides, the inhibition in vivo at 65 mg/kg in [14] stood at 100%.

One may read the Kd as the free concentration of one partner at which half of the binding sites on the other are occupied at equilibrium, for simple one-to-one binding. Usually Ki stands for the equilibrium dissociation constant of an inhibitor or competing ligand from its target. What is called GI50 is the concentration at which growth is held to half of that of the control. By IC50 is commonly meant the concentration that inhibits the measured activity by half.

(Values after ChEMBL document CHEMBL5241118, “4-Aminopyrazolopyrimidine scaffold and its deformation in the design of tyrosine and serine/threonine kinase inhibitors in medicinal chemistry” (RSC Med Chem, 2022).)
